Reference: PubChem BioAssay (NCI)
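Exposure lasted 48 hours, with cells grown in 96-well plates and compounds tested at five concentrations. At the TGI there is no net growth.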

How the values were obtained:
Assay in all cases: NCI anticancer screen, dose series, 48 h
[1] = test system: HCT-116 colon
[2] = test system: HT29 colon
[3] = test system: SNB-75 CNS
[4] = test system: RPMI-8226 leukemia
[5] = test system: T-47D breast
[6] = test system: HS 578T breast
[7] = test system: SNB-19 CNS
[8] = test system: CAKI-1 renal
[9] = test system: OVCAR-5 ovarian
[10] = test system: UACC-257 melanoma
[11] = test system: MDA-MB-231 breast
[12] = test system: SK-OV-3 ovarian
[13] = test system: PC-3 prostate
[14] = test system: MCF7 breast
[15] = test system: MOLT-4 leukemia
[16] = test system: RXF 393 renal
[17] = test system: HCT-15 colon
[18] = test system: SK-MEL-28 melanoma
[19] = test system: OVCAR-8 ovarian
[20] = test system: SN12C renal

Row | Compound | TGI [1] [µM] | TGI [2] [µM] | TGI [3] [µM] | TGI [4] [µM] | TGI [5] [µM] | TGI [6] [µM] | TGI [7] [µM] | TGI [8] [µM] | TGI [9] [µM] | TGI [10] [µM] | TGI [11] [µM] | TGI [12] [µM] | TGI [13] [µM] | TGI [14] [µM] | TGI [15] [µM] | TGI [16] [µM] | TGI [17] [µM] | TGI [18] [µM] | TGI [19] [µM] | TGI [20] [µM]
1 | COc1cc2nc3n(c2cc1OC)C(O)c1c(Cl)nc(SC)nc1S3 (stereo not given) | 10.3 | > 100 | > 68 | > 37 | > 59 | > 100 | > 37.7 | > 45.4 | > 95.1 | 52.5 | > 81 | 30.8 | > 49.8 | 15 | > 48.9 | 14.8 | 12.3 | 23.2 | 7.06 | 21
2 | CC(C)(C)N(Cc1ccccc1)C(=O)/C=C\S(=O)c1ccccc1 (stereo not given) | 7.05 | 14.3 | 23.1 | 7.78 | 22.2 | 7.19 | 23.6 | 18.4 | 28.8 | 16.2 | 11.8 | 19.9 | 13.2 | 16.4 | 7.39 | 13.8 | 18 | 21.7 | 4.16 | 8.66
3 | COc1cccc(OC)c1C1ON=C(c2ccccc2)N1C12CC3CC(CC(C3)C1)C2 (stereo not given) | > 100 | > 100 | > 100 | > 100 | > 100 | > 100 | > 100 | > 100 | > 100 | > 100 | > 100 | > 100 | > 100 | > 100 | > 100 | 11.9 | > 100 | > 100 | > 100 | > 100
4 | Cc1cccc(Nc2nc3ccccc3nc2NS(=O)(=O)c2ccc(N)cc2)c1 | > 100 | > 100 | > 100 | > 100 | > 100 | > 100 | > 100 | > 100 | > 100 | > 100 | > 100 | > 100 | > 100 | > 100 | 59.5 | 70.5 | > 100 | > 100 | > 100 | > 100
5 | Clc1ccc(OCC2NC3CCC2CC3)cn1 (stereo not given) | 35.9 | 33.3 | > 100 | 32.5 | > 100 | > 100 | 77.1 | > 100 | > 100 | 36 | 47.8 | > 100 | 78.3 | 34.8 | 47.5 | > 100 | 45.5 | > 100 | > 100 | 96.6
6 | O=C1C=CC2(C=C1)O[C@H](COCc1ccccc1)[C@@H](COCc1ccccc1)O2 | 0.582 | 5.88 | 13.4 | 1.94 | 6.99 | 4.87 | 12.3 | 5.88 | 3.04 | 3.56 | 12.8 | 29 | 4.74 | 2.3 | 15.1 | 1.31 | 2.99 | 3.57 | 1.28 | 3.6
7 | N#Cc1cc2c(cc1C#N)SCCSCCCSCCS2 | > 86.6 | > 100 | 18.2 | > 100 | > 80.8 | 28.8 | 22.9 | > 57.8 | > 100 | > 100 | 29 | 45.4 | > 82.8 | > 100 | > 100 | 18.1 | 34.9 | > 100 | 31.8 | > 100
8 | CCCc1nnc2sc(COc3ccc(OCc4nn5c(CCC)nnc5s4)c(Cl)c3)nn12 | > 100 | 98.9 | 73.7 | > 100 | 39.6 | > 100 | > 100 | 60 | > 100 | 51.1 | > 100 | > 100 | > 100 | 55.3 | > 100 | > 100 | > 100 | > 100 | > 100 | > 100
9 | NC(Cc1ccc(CP(=O)(O)O)cc1)C(=O)O (stereo not given) | > 100 | > 100 | > 100 | > 100 | > 100 | > 100 | > 100 | > 100 | > 100 | > 100 | > 100 | > 100 | > 100 | > 100 | > 100 | > 100 | > 100 | > 100 | > 100 | > 100
10 | COc1cc(CN=c2nc(N(C)C)ss2)cc(OC)c1OC | > 10 | > 10 | > 10 | > 7.37 | > 10 | > 10 | > 10 | > 10 | > 10 | > 10 | > 10 | > 10 | > 10 | > 10 | 7.18 | > 10 | > 10 | > 10 | > 8.92 | > 10
11 | Cc1ccc2c(c1C)C(=O)C1(C2)Cc2ccc3c(c2C1=O)CCC3 (stereo not given) | > 100 | > 100 | > 100 | > 100 | > 100 | > 100 | > 100 | > 100 | > 100 | > 100 | > 100 | > 100 | > 100 | > 100 | > 100 | > 100 | > 100 | > 100 | > 100 | > 100
12 | C=C1CC[C@](C)(O)[C@@]2(C)CC[C@H]3C(=C(C)C)C(=O)C[C@]3(C)C[C@H]12 | > 50 | > 50 | > 50 | > 50 | > 50 | > 50 | > 50 | > 50 | > 50 | > 50 | > 50 | > 50 | > 50 | > 50 | 31.6 | > 50 | 46.2 | > 50 | > 50 | > 50
